Like-named read-outs stand apart in the source and are kept apart here. Bridge positions count the residues as written; N and C are the ends. Square brackets hold non-standard residues; d marks the D form. Peptide text beside a SMILES is read from it. S5 = C=CCCC[C@](C)(N)C(=O)O; Nle = CCCC[C@H](N)C(=O)O
What was measured:
human red blood cells = format: cell-based
Experimental: FIG. 5 is a series of line graphs depicting the hemolytic activity of magainin II and stapled analogues. Peptides were incubated with 1% (v/v) human red blood cells in phosphate-buffered solution for 1 hour at 37° C. and then the supernatant was isolated and the amount of hemoglobin released was measured at 540 nm. % hemolysis was calculated relative to an untreated control.
Hemolytic Activity Assay:
For the determination of hemolytic activity, human blood samples were centrifuged to isolate red blood cells (RBCs), which are then washed and suspended in phosphate-buffered saline to yield a 1% (v/v) suspension. The suspension was then added to serial dilutions of peptide stocks in water in clear round-bottom polypropylene 96-well plates and the plates were incubated for 1 hour at 37° C. After incubation, the plates were centrifuged and the supernatant was isolated to determine the amount of hemoglobin released using a spectrophotometer (570 nm), according to the equation: % Hemolysis=(Treated Absorbance−Untreated Control Absorbance)/(1% Triton-X100 Treated Absorbance−Untreated Control Absorbance). The minimum hemolytic concentration (MHC) is the peptide concentration at which there is less than 1% hemoglobin release.

B. cereus = format: cell-based, Bacillus cereus
Experimental: (§1) Antimicrobial Activity Assay:
(§2) The following microbroth dilution protocol was adapted to determine the minimum inhibitory concentration (MIC) of each peptide. First, Mueller-Hinton broth (MHB) was passed through an anion exchange column to remove polyanionic species and generate refined MHB. […] Briefly, bacterial cells was grown overnight in refined MHB at 37° C. and then diluted and allowed to grow again for several hours. Serial dilutions of peptide stocks in water (10 μl) were prepared using clear round-bottom polypropylene 96-well plates. Then 90 μl of bacteria in refined MHB was added to give a final inoculum of 5×10^5 CFU/ml. The plates were then covered with porous tape to reduce evaporation, and incubated for 20-24 hours at 37° C. The MIC is the minimum peptide concentration at which no visible growth was observed.

E. coli = format: cell-based, Escherichia coli
Experimental: as §1, §2

S. aureus = format: cell-based, Staphylococcus aureus
Experimental: as §1, §2

P. aeruginosa = format: cell-based, Pseudomonas aeruginosa
Experimental: as §1, §2

Row | Structure (SMILES) | % Hemolysis at 25 μg/ml (human red blood cells; red cells of human, 1 h, 25) [%] | MIC B. cereus (B. cereus) [µg/mL] | MIC E. coli (E. coli) [µg/mL] | MIC S. aureus (S. aureus) [µg/mL] | MIC P. aeruginosa (P. aeruginosa) [µg/mL] | hemolytic activity at concentrations 8-fold higher than its MIC (human red blood cells) | % Hemolysis at 25 μg/ml (human red blood cells)
1 | CCCC[C@H](NC(=O)[C@@H](NC(=O)[C@H](CCC(=O)O)NC(=O)CNC(=O)[C@@H](NC(=O)[C@H](Cc1ccccc1)NC(=O)[C@H](C)NC(=O)[C@H](CCCCN)NC(=O)CNC(=O)[C@H](Cc1ccccc1)NC(=O)[C@H](CCCCN)NC(=O)[C@H](CCCCN)NC(=O)[C@H](C)NC(=O)[C@H](CO)NC(=O)[C@H](Cc1c[nH]cn1)NC(=O)[C@H](CC(C)C)NC(=O)[C@]1(C)CCCC=CCCC[C@](C)(N)C(=O)N[C@@H]([C@@H](C)CC)C(=O)NCC(=O)N[C@@H](CCCCN)C(=O)N1)C(C)C)[C@@H](C)CC)C(=O)N[C@@H](CC(N)=O)C(=O)N[C@@H](CO)C(N)=O [Mag(i + 4)0, XIGKXLHSAKKFGKAFVGEIBNS] (H-[S5]IGK[S5]LHSAKKFGKAFVGEI[Nle]NS-NH2; staple 1-5) | 4.8 | 12.5 | 3.1 | >50 | 50 |  | 
2 | CCCC[C@H](NC(=O)[C@]1(C)CCCC=CCCC[C@](C)(NC(=O)[C@H](C)NC(=O)[C@H](CCCCN)NC(=O)CNC(=O)[C@H](Cc2ccccc2)NC(=O)[C@H](CCCCN)NC(=O)[C@H](CCCCN)NC(=O)[C@H](CCCCN)NC(=O)[C@H](CO)NC(=O)[C@H](Cc2c[nH]cn2)NC(=O)[C@]2(C)CCCC=CCCC[C@](C)(NC(=O)CN)C(=O)NCC(=O)N[C@@H](CCCCN)C(=O)N[C@@H](Cc3ccccc3)C(=O)N2)C(=O)N[C@@H](C(C)C)C(=O)NCC(=O)N[C@@H](CCC(=O)O)C(=O)N1)C(=O)N[C@@H](CC(N)=O)C(=O)N[C@@H](CO)C(N)=O [Mag(i + 4)1, 15(A9K), GXGKFXHSKKKFGKAXVGEXBNS] (H-G[S5]GKF[S5]HSKKKFGKA[S5]VGE[S5][Nle]NS-NH2; staple 2-6, 16-20) | 2.4 | 25 | 1.6 | 50 | 3.1 | little hemolytic activity | 
3 | CCCC[C@H](NC(=O)[C@]1(C)CCCC=CCCC[C@](C)(NC(=O)[C@H](C)NC(=O)[C@H](CCCCN)NC(=O)CNC(=O)[C@H](Cc2ccccc2)NC(=O)[C@H](CCCCN)NC(=O)[C@H](CCCCN)NC(=O)[C@H](CCCCN)NC(=O)[C@H](Cc2c[nH]cn2)NC(=O)[C@H](Cc2c[nH]cn2)NC(=O)[C@]2(C)CCCC=CCCC[C@](C)(NC(=O)CN)C(=O)NCC(=O)N[C@@H](CCCCN)C(=O)N[C@@H](Cc3ccccc3)C(=O)N2)C(=O)N[C@@H](C(C)C)C(=O)N[C@@H](Cc2c[nH]cn2)C(=O)N[C@@H](CCC(=O)O)C(=O)N1)C(=O)N[C@@H](CCC(=O)O)C(=O)N[C@@H](CO)C(N)=O [Mag(i + 4)1, 15(S8H, A9K, G18H, N21E)] (H-G[S5]GKF[S5]HHKKKFGKA[S5]VHE[S5][Nle]ES-NH2; staple 2-6, 16-20; N-terminus assumed) | 4.2 | 50 | 3.1 | >50 | 12.5 |  | 
4 | CCCC[C@H](NC(=O)[C@]1(C)CCCC=CCCC[C@](C)(NC(=O)[C@H](C)NC(=O)[C@H](CCCCN)NC(=O)CNC(=O)[C@H](Cc2ccccc2)NC(=O)[C@H](CCCCN)NC(=O)[C@H](CCCCN)NC(=O)[C@H](Cc2c[nH]cn2)NC(=O)[C@H](CO)NC(=O)[C@]2(C)CCCC=CCCC[C@](C)(NC(=O)[C@H](CCCCN)NC(=O)CN)C(=O)N[C@@H](CCCCN)C(=O)N[C@@H](Cc3ccccc3)C(=O)N[C@@H](CC(C)C)C(=O)N2)C(=O)N[C@@H](C(C)C)C(=O)NCC(=O)N[C@@H](CCC(=O)O)C(=O)N1)C(=O)N[C@@H](CCC(=O)O)C(=O)N[C@@H](CO)C(N)=O [Mag(i + 4)2, 15(I2K, A9H, N21E)] (H-GK[S5]KFL[S5]SHKKFGKA[S5]VGE[S5][Nle]ES-NH2; staple 3-7, 16-20) | 1.8 | 25 | 3.1 | 50 | 12.5 |  | 
5 | CCCC[C@H](NC(=O)[C@]1(C)CCCC=CCCC[C@](C)(NC(=O)[C@H](C)NC(=O)[C@H](CCCCN)NC(=O)CNC(=O)[C@H](Cc2ccccc2)NC(=O)[C@H](CCCCN)NC(=O)[C@H](CCCCN)NC(=O)[C@H](CCCCN)NC(=O)[C@H](CO)NC(=O)[C@]2(C)CCCC=CCCC[C@](C)(NC(=O)[C@H](CCCCN)NC(=O)CN)C(=O)N[C@@H](CCCCN)C(=O)N[C@@H](Cc3ccccc3)C(=O)N[C@@H](CC(C)C)C(=O)N2)C(=O)N[C@@H](C(C)C)C(=O)N[C@@H](Cc2c[nH]cn2)C(=O)N[C@@H](CCC(=O)O)C(=O)N1)C(=O)N[C@@H](CC(N)=O)C(=O)N[C@@H](CO)C(N)=O [Mag(i + 4)2, 15(I2K, A9K, G18H)] (H-GK[S5]KFL[S5]SKKKFGKA[S5]VHE[S5][Nle]NS-NH2; staple 3-7, 16-20) | 2.2 | 12.5 | 3.1 | 25 | 3.1 |  | 
6 | CCCC[C@H](NC(=O)[C@]1(C)CCCC=CCCC[C@](C)(NC(=O)[C@H](C)NC(=O)[C@H](CCCCN)NC(=O)CNC(=O)[C@H](Cc2ccccc2)NC(=O)[C@H](CCCCN)NC(=O)[C@H](CCCCN)NC(=O)[C@H](Cc2c[nH]cn2)NC(=O)[C@H](CO)NC(=O)[C@]2(C)CCCC=CCCC[C@](C)(NC(=O)[C@H](CCCCN)NC(=O)CN)C(=O)N[C@@H](CCCCN)C(=O)N[C@@H](Cc3ccccc3)C(=O)N[C@@H](CC(C)C)C(=O)N2)C(=O)N[C@@H](C(C)C)C(=O)NCC(=O)N[C@@H](CCC(=O)O)C(=O)N1)C(=O)N[C@@H](CC(N)=O)C(=O)N[C@@H](CO)C(N)=O [Mag(i + 4)2, 15(I2X, A9H)] (H-GK[S5]KFL[S5]SHKKFGKA[S5]VGE[S5][Nle]NS-NH2; staple 3-7, 16-20) | 0.6 | 6.2 | 3.1 | 12.5 | 6.2 |  | completely eliminated
7 | CCCC[C@H](NC(=O)[C@]1(C)CCCC=CCCC[C@](C)(NC(=O)[C@H](C)NC(=O)[C@H](CCCCN)NC(=O)CNC(=O)[C@H](Cc2ccccc2)NC(=O)[C@H](CCCCN)NC(=O)[C@H](CCCCN)NC(=O)[C@H](Cc2c[nH]cn2)NC(=O)[C@H](CO)NC(=O)[C@]2(C)CCCC=CCCC[C@](C)(NC(=O)[C@H](CCCCN)NC(=O)CN)C(=O)N[C@@H](CCCCN)C(=O)N[C@@H](Cc3ccccc3)C(=O)N[C@@H](CC(C)C)C(=O)N2)C(=O)N[C@@H](C(C)C)C(=O)N[C@@H](Cc2c[nH]cn2)C(=O)N[C@@H](CCC(=O)O)C(=O)N1)C(=O)N[C@@H](CCC(=O)O)C(=O)N[C@@H](CO)C(N)=O [Mag(i + 4)2, 15(I2X, A9H, G18H, N21E)] (H-GK[S5]KFL[S5]SHKKFGKA[S5]VHE[S5][Nle]ES-NH2; staple 3-7, 16-20) | 4.0 | 6.2 | 3.1 | 25 | 6.2 |  | 
8 | CCCC[C@H](NC(=O)[C@@H](NC(=O)[C@H](CCC(=O)O)NC(=O)CNC(=O)[C@@H](NC(=O)[C@H](Cc1ccccc1)NC(=O)[C@H](C)NC(=O)[C@H](CCCCN)NC(=O)CNC(=O)[C@H](Cc1ccccc1)NC(=O)[C@H](CCCCN)NC(=O)[C@H](CCCCN)NC(=O)[C@H](C)NC(=O)[C@H](CO)NC(=O)[C@]1(C)CCCC=CCCC[C@](C)(NC(=O)[C@@H](NC(=O)CN)[C@@H](C)CC)C(=O)N[C@@H](CCCCN)C(=O)N[C@@H](Cc2ccccc2)C(=O)N[C@@H](CC(C)C)C(=O)N1)C(C)C)[C@@H](C)CC)C(=O)N[C@@H](CC(N)=O)C(=O)N[C@@H](CO)C(N)=O [Mag(i + 4)2] (H-GI[S5]KFL[S5]SAKKFGKAFVGEI[Nle]NS-NH2; staple 3-7) | 19.6 | 12.5 | 3.1 | 12.5 | 12.5 |  | 
9 | CCCC[C@H](NC(=O)[C@@H](NC(=O)[C@H](CCC(=O)O)NC(=O)CNC(=O)[C@@H](NC(=O)[C@H](Cc1ccccc1)NC(=O)[C@H](C)NC(=O)[C@H](CCCCN)NC(=O)CNC(=O)[C@H](Cc1ccccc1)NC(=O)[C@H](CCCCN)NC(=O)[C@H](CCCCN)NC(=O)[C@H](C)NC(=O)[C@]1(C)CCCC=CCCC[C@](C)(NC(=O)CNC(=O)[C@@H](NC(=O)CN)[C@@H](C)CC)C(=O)N[C@@H](Cc2ccccc2)C(=O)N[C@@H](CC(C)C)C(=O)N[C@@H](Cc2c[nH]cn2)C(=O)N1)C(C)C)[C@@H](C)CC)C(=O)N[C@@H](CC(N)=O)C(=O)N[C@@H](CO)C(N)=O [Mag(i + 4)3] (H-GIG[S5]FLH[S5]AKKFGKAFVGEI[Nle]NS-NH2; staple 4-8) | 41.6 | 12.5 | 6.2 | 6.2 | 25 |  | 
